The record followed here is PubChem BioAssay (NCI).

Structures are written as SMILES.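 Method: 48-hour compound exposure of cells in 96-well plates, five concentrations, linear interpolation of endpoints. GI50 is the concentration that inhibits growth by half. At the TGI there is no net growth.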

What all share (assay): growth of human tumour cells (NCI), 48 h
Assay [1] deals with HCC-2998 colon.
Assay [2] deals with NCI-H460 lung.
Assay [3] relates to RPMI-8226 leukemia.
The test system of assay [4] is SF-295 CNS.
Assay [5] concerns NCI/ADR-RES ovarian.
Assay [6] relates to UACC-62 melanoma.
Assay [7] concerns U251 CNS.
Assay [8] has as its system NCI-H226 lung.
The test system of assay [9] is SK-MEL-28 melanoma.
Assay [10] concerns PC-3 prostate.

Consider `O=C(CN1CCN(c2cc3c(cc2F)c(=O)c(C(=O)N/N=C/c2ccccc2O)cn3C2CC2)CC1)N/N=C\c1ccccc1O`, for which the GI50 in assay [1] is 0.615 µM; in assay [2], 0.367 µM; in assay [3], 0.557 µM; in assay [4], 0.931 µM; in assay [5], 0.91 µM; in [6] it was 0.758 µM. Moreover, the GI50 in [7] is 0.367 µM; in assay [8], 3.71 µM; in assay [9] it was 0.657 µM; in assay [10], 0.531 µM. The TGI in assay [1] is > 100 µM; in assay [2], > 48.7 µM; in assay [3], > 100 µM; in assay [4] it was > 100 µM; in assay [5] it was > 100 µM; in assay [6], 12.4 µM. In addition, the TGI in assay [7], in [8], in assay [9] and in assay [10] was > 100 µM throughout.

As to `O=c1n(CC2CO2)c(=O)n(CC2CO2)n1CC1CO1` (stereo not given), the GI50 in assay [1] was 2.17 µM; in assay [2], 0.416 µM; in [3], 13.6 µM; in assay [4], 3.65 µM; in assay [5], 19.5 µM; in [6], 6.51 µM. Besides, the GI50 in assay [7] is 10.9 µM; in assay [8], 40.6 µM; in assay [9] it was > 53.1 µM; in [10], 29.2 µM. Further, the TGI was 37.7 µM in assay [1]; 30.8 µM in assay [2]; > 57.8 µM in assay [3]; > 100 µM in assay [4]; > 100 µM in assay [5]; > 64.1 µM in assay [6]. Moreover, the TGI in assay [7], in [8], in assay [9] and in [10] was > 100 µM each time.

For the molecule `Fc1ccc(Nc2ncnc3ccc(-c4cnc5[nH]ccc5c4)cc23)cc1Cl`, the GI50 in assay [1] is 4.87 µM; in assay [2], 1.83 µM; in [3], 3.09 µM; in assay [4] it was 2.73 µM; in assay [5] it was 2.98 µM; in [6] it was 6.06 µM. For the same molecule, the GI50 in [7] is 2.17 µM; in [8] it was 1.99 µM; in assay [9], 4.13 µM; in assay [10], 3.54 µM. In addition, the TGI in [1] was > 100 µM; in assay [2] it was 4.06 µM; in [3], > 100 µM; in assay [4], 11.2 µM; in assay [5], > 87.8 µM; in assay [6], 63.3 µM. Besides, the TGI in assay [7] is 6.2 µM; in assay [8], 4.97 µM; in assay [9], > 36.2 µM; in assay [10], 27.3 µM.

For `NC(CSC(c1ccccc1)(c1ccccc1)c1ccc2c(c1)OCO2)C(=O)O` (stereo not given), the GI50 was 0.35 µM in assay [1]; 0.375 µM in assay [2]; 0.306 µM in assay [3]; 0.352 µM in [4]; 4.12 µM in assay [5]; 0.57 µM in assay [6]. In addition, the GI50 in assay [7] was 0.405 µM; in assay [8], 15.9 µM; in assay [9], 0.799 µM; in [10], 0.521 µM. Further, the TGI in assay [1] was 3.49 µM; in assay [2], > 40 µM; in [3], 3.77 µM; in assay [4] it was > 48.4 µM; in assay [5], 26.8 µM; in assay [6], > 62.9 µM. Moreover, the TGI in assay [7] was > 74.5 µM; in assay [8], > 84.8 µM; in assay [9], 98.5 µM; in assay [10] it was > 69.6 µM.

For the molecule `O=C1/C(=C/c2ccc([N+](=O)[O-])cc2)COc2ccc(O)c(O)c21`, the GI50 in assay [1] is 1.76 µM; in assay [2] it was 1.74 µM; in assay [3], 0.316 µM; in [4], 2.21 µM; in assay [5] it was 2.66 µM; in assay [6], 1.57 µM. Moreover, the GI50 in [7] was 0.785 µM; in [8], 11 µM; in assay [9], 2.1 µM; in assay [10], 1.59 µM. Besides, the TGI amounted to 3.38 µM in [1]; 3.84 µM in assay [2]; 1.01 µM in assay [3]; 5.17 µM in assay [4]; 9.33 µM in [5]; 3.35 µM in assay [6]. Besides, the TGI was 3.55 µM in assay [7], 45.8 µM in assay [8], 4.61 µM in [9] and 4.53 µM in assay [10].

With `O=C(Nc1ccc(I)cc1)c1cc([N+](=O)[O-])ccc1O`, the GI50 was 3.82 µM in assay [1]; 6.42 µM in assay [2]; 2.65 µM in assay [3]; 4.02 µM in assay [4]; 5.85 µM in [5]; 3.38 µM in [6]. The GI50 in assay [7] was 6.4 µM; in assay [8], 6.19 µM; in assay [9], 9.53 µM; in [10] it was 3.42 µM. For the same molecule, the TGI was 84 µM in [1]; 56.8 µM in assay [2]; 8.78 µM in assay [3]; 39.8 µM in assay [4]; > 100 µM in assay [5]; 14.1 µM in [6]. The TGI stood at 66.1 µM in assay [7], 80.4 µM in assay [8], 72.3 µM in assay [9] and 23.4 µM in assay [10].

Consider `Cn1ccnc1C(=O)/C=C/c1ccc(CC(=O)Nc2ccc(Br)cc2)cc1`, for which the GI50 is 2.95 µM in assay [1]; 3 µM in assay [2]; 2.76 µM in assay [3]; 3.22 µM in assay [4]; 5.08 µM in [5]; 2.8 µM in assay [6]. Besides, the GI50 was 1.97 µM in assay [7], 4.15 µM in [8], 3.32 µM in assay [9] and 2.87 µM in assay [10]. For the same molecule, the TGI in assay [1] was 5.9 µM; in [2], 8.51 µM; in [3], 8.11 µM; in assay [4], 8.89 µM; in [5], > 16.7 µM; in [6] it was 5.73 µM. Besides, the TGI is 4.51 µM in [7], > 16.7 µM in assay [8], 7.63 µM in [9] and 8.25 µM in [10].
